Read-outs that look alike come from different tables or passages of the source.
Columns and labels:
Experiment in all cases: biochemical
Set-up in all cases: DiscoveRx KINOMEscan active site-directed competition binding; percent of control kinase bound to immobilised ligand
GRK4 = GRK4 (Homo sapiens, UniProt P32298)
STK16 = STK16 (Homo sapiens, UniProt O75716)
RAF1 = RAF1 (Homo sapiens, UniProt P04049)
CSNK1G3 = CSNK1G3 (Homo sapiens, UniProt Q9Y6M4)
CSF1R-autoinhibited = CSF1R-autoinhibited (Homo sapiens, UniProt P07333)
Sequence of CSF1R-autoinhibited (P07333 whole entry): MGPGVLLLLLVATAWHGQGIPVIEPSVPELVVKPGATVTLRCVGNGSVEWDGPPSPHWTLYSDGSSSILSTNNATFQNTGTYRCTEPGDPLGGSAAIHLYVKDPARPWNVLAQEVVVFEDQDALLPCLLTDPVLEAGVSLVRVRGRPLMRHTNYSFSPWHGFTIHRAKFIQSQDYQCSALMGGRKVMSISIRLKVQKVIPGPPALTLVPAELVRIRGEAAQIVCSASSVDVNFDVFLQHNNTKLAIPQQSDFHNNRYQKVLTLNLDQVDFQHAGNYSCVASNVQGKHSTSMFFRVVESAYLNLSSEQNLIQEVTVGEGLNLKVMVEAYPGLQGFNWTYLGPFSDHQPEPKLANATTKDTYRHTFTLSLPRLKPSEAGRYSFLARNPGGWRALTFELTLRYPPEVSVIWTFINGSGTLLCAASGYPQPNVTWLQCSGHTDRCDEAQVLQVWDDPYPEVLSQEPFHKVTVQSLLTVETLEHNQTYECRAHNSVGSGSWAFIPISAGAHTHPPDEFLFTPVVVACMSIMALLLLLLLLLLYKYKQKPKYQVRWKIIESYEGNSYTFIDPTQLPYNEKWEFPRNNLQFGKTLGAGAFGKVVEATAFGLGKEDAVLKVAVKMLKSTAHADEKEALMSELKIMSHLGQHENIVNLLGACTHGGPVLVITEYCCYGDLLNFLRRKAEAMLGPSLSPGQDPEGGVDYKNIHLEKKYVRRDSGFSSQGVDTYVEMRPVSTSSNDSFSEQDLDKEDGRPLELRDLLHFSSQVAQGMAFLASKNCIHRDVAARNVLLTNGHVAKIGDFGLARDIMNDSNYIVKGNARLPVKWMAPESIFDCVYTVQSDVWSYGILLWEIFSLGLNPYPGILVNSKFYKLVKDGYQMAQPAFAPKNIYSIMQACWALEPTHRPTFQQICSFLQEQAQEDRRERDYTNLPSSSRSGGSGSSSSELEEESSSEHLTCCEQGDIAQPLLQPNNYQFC

BRSK2 = target: T1, BRSK2 (Homo sapiens, UniProt Q8IWQ3)
T1 sequence (Q8IWQ3 1-736): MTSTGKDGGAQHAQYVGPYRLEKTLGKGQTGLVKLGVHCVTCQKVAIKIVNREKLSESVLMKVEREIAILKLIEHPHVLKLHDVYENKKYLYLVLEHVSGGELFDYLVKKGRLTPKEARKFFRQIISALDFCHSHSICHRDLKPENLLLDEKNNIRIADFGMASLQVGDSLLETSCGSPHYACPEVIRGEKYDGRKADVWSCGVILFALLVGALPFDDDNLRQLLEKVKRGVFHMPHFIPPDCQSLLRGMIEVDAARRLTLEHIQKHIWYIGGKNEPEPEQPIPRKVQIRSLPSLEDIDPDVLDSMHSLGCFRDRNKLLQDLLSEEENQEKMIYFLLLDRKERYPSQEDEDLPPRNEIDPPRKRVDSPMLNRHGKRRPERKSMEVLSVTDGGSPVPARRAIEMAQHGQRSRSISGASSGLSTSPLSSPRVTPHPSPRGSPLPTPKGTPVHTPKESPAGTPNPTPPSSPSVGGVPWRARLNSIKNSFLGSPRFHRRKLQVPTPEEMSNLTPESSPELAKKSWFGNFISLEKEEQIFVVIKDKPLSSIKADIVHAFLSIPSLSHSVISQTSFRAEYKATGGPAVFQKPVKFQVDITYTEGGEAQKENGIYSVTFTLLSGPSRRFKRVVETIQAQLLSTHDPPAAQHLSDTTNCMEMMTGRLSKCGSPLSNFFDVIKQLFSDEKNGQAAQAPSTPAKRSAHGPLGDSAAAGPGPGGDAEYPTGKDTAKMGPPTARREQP

MET = MET (Homo sapiens, UniProt P08581)
Sequence of MET (P08581 whole entry): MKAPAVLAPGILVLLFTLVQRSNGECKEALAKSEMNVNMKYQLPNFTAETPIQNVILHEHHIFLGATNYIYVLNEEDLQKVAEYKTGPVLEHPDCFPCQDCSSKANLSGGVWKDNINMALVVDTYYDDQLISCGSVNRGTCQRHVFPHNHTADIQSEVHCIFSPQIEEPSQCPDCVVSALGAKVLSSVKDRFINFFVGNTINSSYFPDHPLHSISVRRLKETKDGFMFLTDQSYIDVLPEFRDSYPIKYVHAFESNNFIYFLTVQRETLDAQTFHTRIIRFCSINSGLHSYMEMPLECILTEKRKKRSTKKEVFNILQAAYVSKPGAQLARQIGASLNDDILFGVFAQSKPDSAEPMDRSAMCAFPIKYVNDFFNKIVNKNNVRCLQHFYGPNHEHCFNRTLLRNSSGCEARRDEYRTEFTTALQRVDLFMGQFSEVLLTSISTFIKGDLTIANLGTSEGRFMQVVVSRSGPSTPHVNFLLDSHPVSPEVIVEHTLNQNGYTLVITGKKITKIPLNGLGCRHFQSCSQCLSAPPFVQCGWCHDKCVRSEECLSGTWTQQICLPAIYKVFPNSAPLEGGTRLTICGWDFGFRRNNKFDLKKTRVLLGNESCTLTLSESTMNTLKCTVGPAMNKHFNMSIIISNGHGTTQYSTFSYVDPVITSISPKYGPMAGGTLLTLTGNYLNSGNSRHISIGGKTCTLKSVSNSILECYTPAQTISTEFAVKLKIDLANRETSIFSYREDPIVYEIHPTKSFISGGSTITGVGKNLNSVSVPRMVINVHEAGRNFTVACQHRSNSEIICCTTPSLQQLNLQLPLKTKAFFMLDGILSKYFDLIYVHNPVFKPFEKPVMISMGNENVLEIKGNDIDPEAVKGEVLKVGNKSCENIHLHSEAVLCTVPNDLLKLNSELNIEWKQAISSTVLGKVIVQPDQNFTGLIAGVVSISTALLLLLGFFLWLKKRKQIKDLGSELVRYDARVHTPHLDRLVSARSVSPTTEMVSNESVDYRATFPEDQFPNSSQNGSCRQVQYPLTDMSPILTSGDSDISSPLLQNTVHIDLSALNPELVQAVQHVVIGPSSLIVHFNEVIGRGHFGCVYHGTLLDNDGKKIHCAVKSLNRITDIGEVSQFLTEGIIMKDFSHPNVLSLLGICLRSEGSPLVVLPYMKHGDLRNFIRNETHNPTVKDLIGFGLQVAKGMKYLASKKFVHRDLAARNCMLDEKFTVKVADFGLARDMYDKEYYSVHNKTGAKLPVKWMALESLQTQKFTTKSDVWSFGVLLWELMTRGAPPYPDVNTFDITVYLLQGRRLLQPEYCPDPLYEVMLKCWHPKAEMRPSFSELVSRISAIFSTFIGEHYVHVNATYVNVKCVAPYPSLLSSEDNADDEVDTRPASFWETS

FLT3 = target: T2, FLT3 (Homo sapiens, UniProt P36888)
T2 sequence (P36888 1-993): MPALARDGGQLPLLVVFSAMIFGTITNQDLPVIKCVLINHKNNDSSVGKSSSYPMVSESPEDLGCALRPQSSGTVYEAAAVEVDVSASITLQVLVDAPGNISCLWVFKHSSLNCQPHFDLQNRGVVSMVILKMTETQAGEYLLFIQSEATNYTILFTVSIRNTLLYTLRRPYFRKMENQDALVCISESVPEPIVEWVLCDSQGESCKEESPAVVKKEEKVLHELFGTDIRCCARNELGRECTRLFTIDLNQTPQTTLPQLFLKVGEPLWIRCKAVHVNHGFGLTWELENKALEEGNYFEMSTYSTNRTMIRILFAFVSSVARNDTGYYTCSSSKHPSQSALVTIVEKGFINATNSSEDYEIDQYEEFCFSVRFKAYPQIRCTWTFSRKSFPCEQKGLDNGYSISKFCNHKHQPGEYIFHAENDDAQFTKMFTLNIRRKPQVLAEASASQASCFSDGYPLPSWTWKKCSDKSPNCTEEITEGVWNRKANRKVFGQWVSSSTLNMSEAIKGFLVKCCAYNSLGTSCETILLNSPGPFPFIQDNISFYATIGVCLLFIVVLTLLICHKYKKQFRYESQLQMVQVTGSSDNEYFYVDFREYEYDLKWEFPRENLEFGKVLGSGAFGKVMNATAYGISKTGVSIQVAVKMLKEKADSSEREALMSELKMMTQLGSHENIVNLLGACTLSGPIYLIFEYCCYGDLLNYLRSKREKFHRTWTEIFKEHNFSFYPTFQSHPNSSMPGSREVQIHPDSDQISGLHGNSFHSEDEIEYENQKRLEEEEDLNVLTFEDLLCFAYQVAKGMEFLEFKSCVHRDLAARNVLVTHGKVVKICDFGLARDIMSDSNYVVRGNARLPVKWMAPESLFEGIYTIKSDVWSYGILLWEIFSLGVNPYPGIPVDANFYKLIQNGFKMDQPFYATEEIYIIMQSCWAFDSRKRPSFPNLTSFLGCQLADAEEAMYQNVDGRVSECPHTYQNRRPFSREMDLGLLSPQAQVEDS

[1] = read-out: Talazoparib (BMN 673) / %Ctrl @ 10000nM
[2] = read-out: Olaparib / %Ctrl @ 10000nM
[3] = read-out: Niraparib (MK-4827) / %Ctrl @ 10000nM
[4] = read-out: Rucaparib / %Ctrl @ 10000nM, binding competition, % of control

Sequence of RAF1 (P04049 whole entry): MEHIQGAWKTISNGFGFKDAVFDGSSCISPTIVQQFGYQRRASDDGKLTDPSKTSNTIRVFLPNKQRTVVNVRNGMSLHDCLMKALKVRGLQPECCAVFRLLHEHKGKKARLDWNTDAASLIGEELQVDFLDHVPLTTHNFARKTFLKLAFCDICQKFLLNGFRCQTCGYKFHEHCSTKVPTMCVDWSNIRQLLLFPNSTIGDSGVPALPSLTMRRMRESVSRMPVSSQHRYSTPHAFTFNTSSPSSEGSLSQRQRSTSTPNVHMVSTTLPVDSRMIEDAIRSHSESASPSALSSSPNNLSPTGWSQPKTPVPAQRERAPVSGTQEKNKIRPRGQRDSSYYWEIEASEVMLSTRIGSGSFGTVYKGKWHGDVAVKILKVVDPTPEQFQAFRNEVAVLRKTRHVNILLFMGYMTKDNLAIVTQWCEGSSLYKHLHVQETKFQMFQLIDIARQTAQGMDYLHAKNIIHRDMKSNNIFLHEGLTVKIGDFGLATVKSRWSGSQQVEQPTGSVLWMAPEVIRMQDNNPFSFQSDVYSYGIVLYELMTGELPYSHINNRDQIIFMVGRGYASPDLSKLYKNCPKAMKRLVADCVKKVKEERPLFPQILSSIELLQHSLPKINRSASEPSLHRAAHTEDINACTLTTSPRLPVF
Sequence of GRK4 (P32298 whole entry): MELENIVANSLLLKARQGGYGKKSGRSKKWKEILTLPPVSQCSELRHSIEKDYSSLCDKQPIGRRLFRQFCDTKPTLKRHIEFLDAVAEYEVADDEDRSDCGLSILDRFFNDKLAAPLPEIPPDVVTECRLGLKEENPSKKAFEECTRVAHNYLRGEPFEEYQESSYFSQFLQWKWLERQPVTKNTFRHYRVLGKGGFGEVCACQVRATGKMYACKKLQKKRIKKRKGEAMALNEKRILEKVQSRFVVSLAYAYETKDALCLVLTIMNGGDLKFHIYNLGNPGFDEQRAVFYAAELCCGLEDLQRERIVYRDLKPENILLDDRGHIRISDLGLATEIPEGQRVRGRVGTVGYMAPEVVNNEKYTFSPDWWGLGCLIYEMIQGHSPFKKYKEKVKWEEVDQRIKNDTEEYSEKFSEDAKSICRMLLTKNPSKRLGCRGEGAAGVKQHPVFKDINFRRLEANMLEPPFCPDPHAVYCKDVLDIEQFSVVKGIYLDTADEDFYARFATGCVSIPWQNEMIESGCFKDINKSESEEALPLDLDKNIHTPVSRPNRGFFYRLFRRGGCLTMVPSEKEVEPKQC
Sequence of STK16 (O75716 whole entry): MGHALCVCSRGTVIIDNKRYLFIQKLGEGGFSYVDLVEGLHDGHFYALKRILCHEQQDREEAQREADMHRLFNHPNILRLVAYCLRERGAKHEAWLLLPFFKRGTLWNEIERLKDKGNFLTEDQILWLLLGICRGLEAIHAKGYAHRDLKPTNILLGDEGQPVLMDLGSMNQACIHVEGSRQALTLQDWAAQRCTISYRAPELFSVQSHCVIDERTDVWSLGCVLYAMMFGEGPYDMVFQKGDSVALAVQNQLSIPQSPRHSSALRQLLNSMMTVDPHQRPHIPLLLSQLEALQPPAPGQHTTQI
Sequence of CSNK1G3 (Q9Y6M4 whole entry): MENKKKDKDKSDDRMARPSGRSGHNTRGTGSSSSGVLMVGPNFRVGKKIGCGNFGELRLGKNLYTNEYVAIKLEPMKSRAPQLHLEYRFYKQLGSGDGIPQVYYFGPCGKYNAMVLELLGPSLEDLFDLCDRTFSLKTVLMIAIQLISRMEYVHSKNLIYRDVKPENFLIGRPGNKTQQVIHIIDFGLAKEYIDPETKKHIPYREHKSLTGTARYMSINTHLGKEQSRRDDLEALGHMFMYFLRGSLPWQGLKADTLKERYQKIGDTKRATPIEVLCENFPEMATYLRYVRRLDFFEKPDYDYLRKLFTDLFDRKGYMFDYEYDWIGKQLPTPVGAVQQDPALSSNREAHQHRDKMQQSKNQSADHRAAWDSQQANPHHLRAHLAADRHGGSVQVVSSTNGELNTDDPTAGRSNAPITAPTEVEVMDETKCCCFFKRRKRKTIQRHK

Compound: Cn1ncnc1[C@H]1c2n[nH]c(=O)c3cc(F)cc(c23)N[C@@H]1c1ccc(F)cc1 [Talazoparib]
- percent of control binding at 10 µM (GRK4; [1]): 100%
- percent of control binding at 10 µM (STK16; [1]): 90%
- percent of control binding at 10 µM (RAF1; [1]): 90%
- percent of control binding at 10 µM (CSNK1G3; [1]): 88%
- percent of control binding at 10 µM (CSF1R-autoinhibited; [1]): 100%
- percent of control binding at 10 µM (BRSK2; [1]): 63%
- percent of control binding at 10 µM (MET; [1]): 99%
- percent of control binding at 10 µM (FLT3; [1]): 94%

Compound: O=C(c1cc(Cc2n[nH]c(=O)c3ccccc23)ccc1F)N1CCN(C(=O)C2CC2)CC1 [Olaparib]
- percent of control binding at 10 µM (GRK4; [2]): 91%
- percent of control binding at 10 µM (STK16; [2]): 83%
- percent of control binding at 10 µM (RAF1; [2]): 89%
- percent of control binding at 10 µM (CSNK1G3; [2]): 93%
- percent of control binding at 10 µM (CSF1R-autoinhibited; [2]): 95%
- percent of control binding at 10 µM (BRSK2; [2]): 95%
- percent of control binding at 10 µM (MET; [2]): 91%
- percent of control binding at 10 µM (FLT3; [2]): 100%

Compound: NC(=O)c1cccc2cn(-c3ccc([C@@H]4CCCNC4)cc3)nc12 [Niraparib]
- percent of control binding at 10 µM (GRK4; [3]): 62%
- percent of control binding at 10 µM (STK16; [3]): 93%
- percent of control binding at 10 µM (RAF1; [3]): 93%
- percent of control binding at 10 µM (CSNK1G3; [3]): 85%
- percent of control binding at 10 µM (CSF1R-autoinhibited; [3]): 81%
- percent of control binding at 10 µM (BRSK2; [3]): 91%
- percent of control binding at 10 µM (MET; [3]): 92%
- percent of control binding at 10 µM (FLT3; [3]): 70%

Compound: CNCc1ccc(-c2[nH]c3cc(F)cc4c3c2CCNC4=O)cc1 [Rucaparib]
- percent of control binding at 10 µM (GRK4; [4]): 100%
- percent of control binding at 10 µM (STK16; [4]): 100%
- percent of control binding at 10 µM (RAF1; [4]): 99%
- percent of control binding at 10 µM (CSNK1G3; [4]): 97%
- percent of control binding at 10 µM (CSF1R-autoinhibited; [4]): 99%
- percent of control binding at 10 µM (BRSK2; [4]): 76%
- percent of control binding at 10 µM (MET; [4]): 92%
- Rucaparib / %Ctrl @ 10000nM (FLT3; binding competition, % of control): 98%
